Patent US20120232062A1, “AZAINDAZOLES TO TREAT FLAVIVIRIDAE VIRUS INFECTION” (EIGER BIOPHARMACEUTICALS, INC., priority 2009, published 2012)
Read-outs that look alike come from different tables or passages of the source.

Columns and labels:
[1] = system: HCV genotype 1b; assay: HCV 1b replicon luciferase assay; format: cell-based
Summary of the method: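 Huh7 cells carrying a genotype 1b replicon with stable luciferase reporter, 10k cells/well, were treated 48 h at 37 °C with 10-point 5-fold dilutions from 25 μM (0.1% DMSO), in duplicate. Replication was read as Steady-Glo luminescence.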

[2] = target: T1, hERG channel (Homo sapiens, UniProt Q12809); assay: hERG channel assay; format: cell-based; conditions: CHO cell line expressing hERG, whole cell recordings
T1 construct: host or cells: CHO (Chinese Hamster Ovary), stably transfected
Procedure: The most common mechanism for these adverse events is the inhibition of one or more cardiac potassium channels, in particular hERG. This current is important for cardiac myocyte repolarization and is a common target for drugs that prolong the QT interval. Test articles in this study were therefore characterized to determine their ability to inhibit the hERG channel. Ion channel activity was measured using a stably transfected Chinese Hamster Ovary (CHO) cell line expressing the hERG mRNA. The pharmacology of this cloned channel expressed in the CHO cell line is very similar to that observed in native tissue.
Cells: AVIVA's CHO cell line, which stably expresses hERG channels, was used for the study. Cells were cultured in DMEM/F12 containing 10% FBS, 1% penicillin/streptomycin and 500 μg/ml G418. Before testing, cells were harvested using Accumax (Innovative Cell Technologies).
Solutions: For electrophysiological recordings, the following solutions were used. External Solution: 2 mM CaCl2; 2 mM MgCl2; 4 mM KCl; 150 mM NaCl; 10 mM Glucose; 10 mM HEPES; 310-320 mOsm; pH 7.4 (adjusted with 1M NaOH). Internal Solution: 140 mM KCl; 10 mM MgCl2; 6 mM EGTA; 5 mM HEPESNa; […]; 300-320 mOsm; pH 7.25 (adjusted with 1M KOH).
Electrophysiology: Whole cell recordings were performed using PX 7000A (Axon Instruments) with VIVA's SealChip™ technology. Cells were voltage clamped at a holding potential of −80 mV. The hERG current was then activated by a depolarizing step to −50 mV for 300 ms. This first step at −50 mV was used as a baseline for measuring peak amplitude of the tail current. Next, a voltage step to +20 mV was applied for 5 s to activate the channels. Finally a step back to −50 mV for 5 seconds removed activation and the deactivating tail current was recorded.
Compound Handling and Dilutions: All compounds were prepared from either 10 or 30 mM DMSO stock solutions. Solutions were mixed by sonication for 20 min, followed by vigorous vortexing. Prior to testing, compounds were diluted to test concentrations in glass vials using External Solution. Dilutions were prepared no longer than 20 min prior to use. Equal amounts of DMSO (0.1%) were present in all final dilutions.
Electrophysiology Procedures: After achieving whole cell configuration, cells were monitored for 90 s to assess stability and then washed with External Solution for 66 s. The voltage protocol described above was then applied to the cells every 12 s throughout the procedure. Only stable cells with recording parameters above threshold (see Quality Control section) were allowed to enter the drug addition procedure. External solution containing 0.1% DMSO (vehicle) was applied to the cells to establish a baseline. After allowing the current to stabilize for 3 to 5 min, test articles were applied. Test article solutions were added to cells in 4 separate additions. Cells were kept in test solution until effect of the test article reached steady state, to a maximum of 12 min. Next, 1 μM cisapride (positive control) was added. Finally, washout with External Solution was performed until the recovery current reached a steady state.
Data Analysis: Data analysis was performed using DataXpress (Axon Instruments), Clampfit (Axon Instruments) and Origin (Originlab Corporation) software.

[3] = Hepatitis C virus, Huh-7, 48 h, Table 1, Huh7 HCV 1b replicon, luciferase reporter, 48 hours, read-out: 1b EC50
[4] = Hepatitis C virus, read-out: 1b replicon EC50, Tables 4, 5 and text of the rat PK section
[5] = read-out: 1b replicon EC50, Tables 4, 5 and the rat PK section

T1 sequence (Q12809 whole entry): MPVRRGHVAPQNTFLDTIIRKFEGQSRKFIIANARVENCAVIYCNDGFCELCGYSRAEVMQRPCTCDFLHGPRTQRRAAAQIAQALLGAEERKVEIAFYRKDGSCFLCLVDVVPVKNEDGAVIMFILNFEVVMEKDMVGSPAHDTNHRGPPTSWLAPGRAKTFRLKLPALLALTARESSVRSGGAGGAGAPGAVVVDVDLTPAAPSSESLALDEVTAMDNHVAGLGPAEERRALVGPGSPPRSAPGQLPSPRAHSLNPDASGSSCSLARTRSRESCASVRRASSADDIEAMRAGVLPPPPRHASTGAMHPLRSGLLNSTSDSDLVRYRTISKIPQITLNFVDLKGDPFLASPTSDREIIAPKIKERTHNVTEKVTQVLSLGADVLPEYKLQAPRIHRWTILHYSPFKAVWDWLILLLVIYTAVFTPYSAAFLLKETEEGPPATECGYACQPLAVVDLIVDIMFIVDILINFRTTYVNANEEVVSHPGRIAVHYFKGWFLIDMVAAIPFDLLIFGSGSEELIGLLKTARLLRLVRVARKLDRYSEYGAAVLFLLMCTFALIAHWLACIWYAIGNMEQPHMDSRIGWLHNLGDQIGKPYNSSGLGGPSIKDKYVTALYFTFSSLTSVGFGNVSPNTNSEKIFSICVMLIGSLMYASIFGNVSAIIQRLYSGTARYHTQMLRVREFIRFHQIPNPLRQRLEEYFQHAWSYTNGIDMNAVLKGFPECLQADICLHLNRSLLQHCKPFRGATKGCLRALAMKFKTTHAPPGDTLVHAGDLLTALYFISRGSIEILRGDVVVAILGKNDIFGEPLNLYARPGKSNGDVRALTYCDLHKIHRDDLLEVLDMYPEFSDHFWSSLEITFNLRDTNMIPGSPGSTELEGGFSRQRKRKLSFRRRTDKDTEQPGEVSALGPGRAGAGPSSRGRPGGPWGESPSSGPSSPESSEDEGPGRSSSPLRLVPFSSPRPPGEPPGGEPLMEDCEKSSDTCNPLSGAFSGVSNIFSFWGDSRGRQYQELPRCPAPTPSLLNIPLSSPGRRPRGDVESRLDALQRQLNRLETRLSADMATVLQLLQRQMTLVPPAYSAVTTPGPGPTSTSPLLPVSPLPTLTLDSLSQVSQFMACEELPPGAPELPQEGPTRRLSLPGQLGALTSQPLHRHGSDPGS

Row | SMILES | EC50 [1, 3] [nM] | IC50 [2] [nM] | EC50 [1, 4] [nM] | EC50 [1, 5] [nM]
1 | Cn1nc(C(=O)NC2CCNCC2)c2ccc(N3CCCCCC3)nc21.O=C(O)C(F)(F)F.O=C(O)C(F)(F)F [compound 697] | 670 | > 10000 |  | 
2 | CCC(CC)Oc1ccc2c(C(=O)NC3CCNCC3)n[nH]c2n1 [compound 726] | 1200 | > 10000 |  | 
3 | Cn1nc(C(=O)NC2CCN(CCN3CCCCC3)CC2)c2ccc(N3CCCCCC3)nc21 [compound 1047] | 520 | 9500 |  | 
4 | Clc1ccc(Cn2nc(COCCCN3CCCCC3)c3ccc(N4CCCCCC4)nc32)cc1 [compound 749] | 2000 | 3300 |  | 
5 | Cn1nc(C(=O)NC2CCN(CCN3CCCCC3)CC2)c2ccc(N3CCCCCC3)nc21 [EBP1047] |  |  | 500 to 2000 | 500
6 | Cn1nc(C(=O)NC2CCN(CCN3CCCC3)CC2)c2ccc(N3CCCCCC3)nc21 [EBP1597] |  |  | 500 to 2000 | 900
7 | Cn1nc(CCCN2CCCC2)c2ccc(N3CCCCCCC3)nc21 [compound 1171] | 1600 |  |  | 
8 | CCC(CC)Oc1ccc2c(COCC3CCCNC3)nn(Cc3ccc(Cl)cc3)c2n1.O=C(O)C(F)(F)F (stereo not shown) [compound 755] | 3200 | > 10000 |  | 
9 | O=C(NC1CCNCC1)c1nn(C(=O)C2CCCCC2)c2nc(N3CCCCCC3)ccc12.O=C(O)C(F)(F)F.O=C(O)C(F)(F)F.O=C(O)C(F)(F)F [compound 989] | 2600 | > 10000 |  | 
10 | Cn1nc(C(=O)NC2CCN(CCN3CCCC3)CC2)c2ccc(N3CCCCCC3)nc21 [compound 1597] | 770 | 9100 |  | 
11 | CCN1CCC(NC(=O)c2nn(C)c3nc(N4CCCCCC4)ccc23)CC1 [compound 1595] | 740 | 1100 |  | 
12 | CCN1CCC(NC(=O)c2nn(C)c3nc(N4CCCCCC4)ccc23)CC1 [EBP1595] |  |  | 500 to 2000 | 1000
13 | Cn1nc(C(=O)NC2CCN(CC3CCCCC3)CC2)c2ccc(N3CCCCCCC3)nc21 [compound 1062] | 356 | > 10000 |  | 
14 | CC(C)N1CCC(NC(=O)c2nn(C)c3nc(N4CCCCCC4)ccc23)CC1 [EBP1604] |  |  |  | 2200
15 | Cn1nc(CCCN2CCCCC2CO)c2ccc(N3CCCCCCC3)nc21 (stereo not shown) [compound 1456] | 1500 |  |  | 
16 | Cn1nc(C(=O)NC2CCN(CC(F)F)CC2)c2ccc(N3CCCCCC3)nc21 [compound 1110] | 1800 |  |  | 
